Results published in patent US10787450B2 (BRISTOL-MYERS SQUIBB COMPANY, priority 2016, dated 2020).
Counter-ions that a name gives are not always drawn.

Biological target: ROCK2 (Homo sapiens (Human), UniProt O75116)
Assay: ROCK2 kinase inhibition assay (FITC peptide substrate, LABCHIP 3000 Reader)
Format: biochemical
Conditions: 5 μM ATP, 1.5 μM peptide substrate
Protocol: The effectiveness of compounds of the present invention as ROCK inhibitors can be determined in a 30 μL assay containing 20 mM HEPES, pH 7.5, 20 mM MgCl2, 0.015% Brij-35, 4 mM DTT, 5 μM ATP and 1.5 μM peptide substrate (FITC-AHA-AKRRRLSSLRA-OH) (SEQ ID NO. 1). Compounds were dissolved in DMSO so that the final concentration of DMSO was <2%, and the reaction was initiated with Rho kinase variants. After incubation, the reaction was terminated by the addition of EDTA and the phosphorylated and non-phosphorylated peptides separated using a LABCHIP® 3000 Reader (Caliper Life Sciences). […] Compounds were tested in dose-response format, and the inhibition of kinase activity was calculated at each concentration of compound. The inhibition data were fit using a curve-fitting program to determine the IC50; i.e., the concentration of compound required to inhibit 50% of kinase activity.
Representative examples were tested in the ROCK2 assay described above and found having ROCK2 inhibitory activity.

Chain of ROCK2 (O75116 whole entry, species assumed): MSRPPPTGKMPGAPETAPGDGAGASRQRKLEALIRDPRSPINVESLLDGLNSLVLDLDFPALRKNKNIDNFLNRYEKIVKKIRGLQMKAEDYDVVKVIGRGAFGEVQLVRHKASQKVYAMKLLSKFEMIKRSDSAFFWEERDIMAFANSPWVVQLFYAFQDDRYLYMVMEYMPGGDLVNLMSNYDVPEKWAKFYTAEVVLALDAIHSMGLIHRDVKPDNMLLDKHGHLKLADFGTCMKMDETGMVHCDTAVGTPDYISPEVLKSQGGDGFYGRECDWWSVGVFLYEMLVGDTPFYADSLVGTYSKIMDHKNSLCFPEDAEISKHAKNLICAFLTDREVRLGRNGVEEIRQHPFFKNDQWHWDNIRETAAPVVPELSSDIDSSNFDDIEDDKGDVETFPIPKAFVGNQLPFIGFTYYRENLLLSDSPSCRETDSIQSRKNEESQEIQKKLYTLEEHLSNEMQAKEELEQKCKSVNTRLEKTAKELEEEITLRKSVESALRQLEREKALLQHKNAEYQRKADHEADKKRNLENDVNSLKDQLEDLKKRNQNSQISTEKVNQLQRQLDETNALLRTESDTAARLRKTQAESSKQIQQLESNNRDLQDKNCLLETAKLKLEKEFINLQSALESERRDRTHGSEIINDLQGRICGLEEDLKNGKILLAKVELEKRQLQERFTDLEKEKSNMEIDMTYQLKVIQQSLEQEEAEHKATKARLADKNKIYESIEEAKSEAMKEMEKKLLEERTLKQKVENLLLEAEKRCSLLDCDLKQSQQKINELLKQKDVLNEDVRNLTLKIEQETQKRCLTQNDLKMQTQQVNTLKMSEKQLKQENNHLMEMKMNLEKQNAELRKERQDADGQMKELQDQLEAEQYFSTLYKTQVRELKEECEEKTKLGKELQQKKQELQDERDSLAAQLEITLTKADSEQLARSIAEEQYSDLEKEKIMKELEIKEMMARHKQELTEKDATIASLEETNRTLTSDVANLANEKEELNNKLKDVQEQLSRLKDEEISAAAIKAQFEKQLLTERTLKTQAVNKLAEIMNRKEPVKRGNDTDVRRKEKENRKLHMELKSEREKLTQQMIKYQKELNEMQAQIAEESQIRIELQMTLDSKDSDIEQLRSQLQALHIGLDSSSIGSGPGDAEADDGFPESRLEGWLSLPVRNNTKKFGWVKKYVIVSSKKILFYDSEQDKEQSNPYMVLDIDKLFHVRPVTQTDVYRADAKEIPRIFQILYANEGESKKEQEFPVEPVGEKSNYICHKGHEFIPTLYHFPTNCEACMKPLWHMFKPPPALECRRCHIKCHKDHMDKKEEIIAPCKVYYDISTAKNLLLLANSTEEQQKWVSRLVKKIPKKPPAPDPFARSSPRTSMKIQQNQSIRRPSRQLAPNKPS

Structure (SMILES)	IC50
COc1cc(F)cc(CN2C(=O)N(c3ccc(-c4cn[nH]c4)cc3)CC23CCOCC3)c1 [Example 10, 3-(4-(1H-pyrazol-4-yl)phenyl)-1-(3-fluoro-5-methoxybenzyl)-8-oxa-1,3-diazaspiro[4.5]decan-2-one]	< 3 nM
COc1cccc(CN2C(=O)N(c3ccc(-c4cn[nH]c4)cc3)CC23CCN(CC2CCOCC2)CC3)c1 [Example 233, 3-(4-(1H-pyrazol-4-yl)phenyl)-1-(3-methoxy-benzyl)-8-((tetrahydro-2H-pyran-4-yl)methyl)-1,3,8-triazaspiro [4.5]decan-2-one]	< 3 nM
COC(=O)N1CCC2(CC1)CN(c1ncc(-c3cn[nH]c3)c(OC)n1)C(=O)N2Cc1cccc(OC)c1 [Example 111, methyl 3-(4-methoxy-5-(1H-pyrazol-4-yl)pyrimidin-2-yl)-1-(3-methoxybenzyl)-2-oxo-1,3,8-triazaspiro[4.5]decane-8-carboxylate]	3 to 30 nM
O=C1N(c2ccc(-c3cn[nH]c3)cc2)CC2(CCOCC2)N1Cc1cccc(OCC2CC2)c1 [Example 11, 3-(4-(1H-pyrazol-4-yl)phenyl)-1-(3-(cyclopropylmethoxy)benzyl)-8-oxa-1,3-diazaspiro[4.5]decan-2-one]	3 to 30 nM
COc1nc(N2CC3(CCN(C(=O)CC(C)c4ccccc4)CC3)N(Cc3cccc(F)c3C)C2=O)ccc1-c1cn[nH]c1 (stereo not drawn) [Example 224, 1-(3-fluoro-2-methylbenzyl)-3-(6-methoxy-5-(1H-pyrazol-4-yl)pyridin-2-yl)-8-(3-phenylbutanoyl)-1,3,8-triazaspiro[4.5]decan-2-one]	3 to 30 nM
CCc1cc(N2CC3(CC3)N(Cc3cccc(OC)c3)C2=O)ccc1-c1cn[nH]c1 [Example 5, 6-(3-ethyl-4-(1H-pyrazol-4-yl)phenyl)-4-(3-methoxybenzyl)-4,6-diazaspiro[2.4]heptan-5-one]	< 3 nM
CCN1CCC2(CC1)CN(c1ccc(-c3cn[nH]c3)cc1)C(=O)N2Cc1cccc(OC)c1 [Example 122, 3-(4-(1H-pyrazol-4-yl)phenyl)-8-ethyl-1-(3-methoxybenzyl)-1,3,8-triazaspiro[4.5]decan-2-one]	< 3 nM
CCc1nc(N2CC3(CCN(C(=O)CN(C)C)CC3)N(Cc3cccc(OC)c3)C2=O)ccc1-c1cn[nH]c1 [Example 203, 8-(2-(dimethylamino)acetyl)-3-(6-ethyl-5-(1H-pyrazol-4-yl)pyridin-2-yl)-1-(3-methoxybenzyl)-1,3,8-triazaspiro[4.5]decan-2-one]	< 3 nM
CCc1nc(N2CC3(CCN(CCO)CC3)N(Cc3cc(F)cc(OC)c3)C2=O)ccc1-c1cn[nH]c1 [Example 153, 3-(6-ethyl-5-(1H-pyrazol-4-yl)pyridin-2-yl)-1-(3-fluoro-5-methoxybenzyl)-8-(2-hydroxyethyl)-1,3,8-triazaspiro[4.5]decan-2-one]	< 3 nM
CCc1nc(N2CC3(CCN(C(=O)OC)CC3)N(Cc3cccc(OC)c3)C2=O)ccc1-c1cn[nH]c1 [Example 105, methyl 3-(6-ethyl-5-(1H-pyrazol-4-yl)pyridin-2-yl)-1-(3-methoxybenzyl)-2-oxo-1,3,8-triazaspiro[4.5]decane-8-carboxylate]	< 3 nM
COc1cc(F)cc(CN2C(=O)N(c3ccc(-c4cn[nH]c4)cc3)CC23CCNCC3)c1 [Example 58, 3-(4-(1H-pyrazol-4-yl)phenyl)-1-(3-fluoro-5-methoxybenzyl)-1,3,8-triazaspiro[4.5]decan-2-one, TFA]	< 3 nM
COc1cccc(CN2C(=O)N(c3ccc(-c4cn[nH]c4)cn3)CC23CCN(C(C)=O)CC3)c1 [Example 50, 3-(5-(1H-pyrazol-4-yl)pyridin-2-yl)-8-acetyl-1-(3-methoxybenzyl)-1,3,8-triazaspiro[4.5]decan-2-one]	3 to 30 nM
CCc1nc(N2CC3(CCN(C(=O)C(C)(C)O)CC3)N(Cc3cccc(OC)c3)C2=O)ccc1-c1cn[nH]c1 [Example 205, 3-(6-ethyl-5-(1H-pyrazol-4-yl)pyridin-2-yl)-8-(2-hydroxy-2-methylpropanoyl)-1-(3-methoxybenzyl)-1,3,8-triazaspiro[4.5]decan-2-one]	3 to 30 nM
COc1cccc(CN2C(=O)N(c3ccc(-c4cn[nH]c4)cn3)CC23CCN(C(=O)C2COC2)CC3)c1 [Example 196, 3-(5-(1H-pyrazol-4-yl)pyridin-2-yl)-1-(3-methoxybenzyl)-8-(oxetane-3-carbonyl)-1,3,8-triazaspiro[4.5]decan-2-one]	3 to 30 nM
CC(=O)N1CCC2(CC1)CN(c1ccc(-c3cn[nH]c3)cc1)C(=O)N2CC1CCCCC1 [Example 79, 3-(4-(1H-pyrazol-4-yl)phenyl)-8-acetyl-1-(cyclohexylmethyl)-1,3,8-triazaspiro[4.5]decan-2-one]	30 to 250 nM
COc1cccc(CN2C(=O)N(c3ccc(-c4cn[nH]c4)cn3)CC23CCN(C2COC2)CC3)c1 [Example 237, 3-(5-(1H-pyrazol-4-yl)pyridin-2-yl)-1-(3-methoxy-benzyl)-8-(oxetan-3-yl)-1,3,8-triazaspiro [4.5]decan-2-one]	< 3 nM
COc1cccc(CN2C(=O)N(c3ccc(-c4cn[nH]c4)c(OC)n3)CC23CCN(CC(C)(C)O)CC3)c1 [Example 148, 8-(2-hydroxy-2-methylpropyl)-3-(6-methoxy-5-(1H-pyrazol-4-yl)pyridin-2-yl)-1-(3-methoxybenzyl)-1,3,8-triazaspiro[4.5]decan-2-one]	< 3 nM
CCc1nc(N2CC3(CCN(C(=O)C4COC4)CC3)N(Cc3cccc(F)c3C)C2=O)ccc1-c1cn[nH]c1 [Example 182, 3-(6-ethyl-5-(1H-pyrazol-4-yl)pyridin-2-yl)-1-(3-fluoro-2-methylbenzyl)-8-(oxetane-3-carbonyl)-1,3,8-triazaspiro[4.5]decan-2-one]	< 3 nM
CCc1nc(N2CC3(CCN(CCC(F)(F)F)CC3)N(Cc3cccc(OC)c3)C2=O)ccc1-c1cn[nH]c1 [Example 127, 3-(6-ethyl-5-(1H-pyrazol-4-yl)pyridin-2-yl)-1-(3-methoxybenzyl)-8-(3,3,3-trifluoropropyl)-1,3,8-triazaspiro[4.5]decan-2-one]	3 to 30 nM
COc1cccc(CN2C(=O)N(c3ccc(-c4cn[nH]c4)cc3)CC23CCN(C(N)=O)CC3)c1 [Example 92, 3-(4-(1H-pyrazol-4-yl)phenyl)-1-(3-methoxybenzyl)-2-oxo-1,3,8-triazaspiro[4.5]decane-8-carboxamide]	< 3 nM
CC(=O)N1CCC2(CC1)CN(c1ccc(-c3cn[nH]c3)cc1)C(=O)N2Cc1cc(F)ccc1F [Example 78, 3-(4-(1H-pyrazol-4-yl)phenyl)-8-acetyl-1-(2,5-difluorobenzyl)-1,3,8-triazaspiro[4.5]decan-2-one]	30 to 250 nM
Cc1ccc(F)cc1CN1C(=O)N(c2ccc(-c3cn[nH]c3)cc2)CC12CCOCC2 [Example 27, 3-(4-(1H-pyrazol-4-yl)phenyl)-1-(5-fluoro-2-methylbenzyl)-8-oxa-1,3-diazaspiro[4.5]decan-2-one]	30 to 250 nM
COc1nc(N2CC3(CCN(C4COC4)CC3)N(Cc3cccc(F)c3C)C2=O)ccc1-c1cn[nH]c1 [Example 239, 1-(3-fluoro-2-methyl-benzyl)-3-(6-methoxy-5-(1H-pyrazol-4-yl)pyridin-2-yl)-8-(oxetan-3-yl)-1,3,8-triazaspiro [4.5]decan-2-one]	< 3 nM
CCc1nc(N2CC3(CCN(CC(F)F)CC3)N(Cc3cccc(F)c3C)C2=O)ccc1-c1cn[nH]c1 [Example 130, 8-(2,2-difluoroethyl)-3-(6-ethyl-5-(1H-pyrazol-4-yl)pyridin-2-yl)-1-(3-fluoro-2-methylbenzyl)-1,3,8-triazaspiro[4.5]decan-2-one]	3 to 30 nM
CCN(C)C(=O)c1cccc(CN2C(=O)N(c3ccc(-c4cn[nH]c4)cc3)CC23CCOCC3)c1 [Example 41, 3-((3-(4-(1H-pyrazol-4-yl)phenyl)-2-oxo-8-oxa-1,3-diazaspiro[4.5]decan-1-yl)methyl)-N-ethyl-N-methylbenzamide]	30 to 250 nM
CCc1nc(N2CC3(CCN(C(=O)C(C)(C)CO)CC3)N(Cc3cccc(OC)c3)C2=O)ccc1-c1cn[nH]c1 [Example 204, 3-(6-ethyl-5-(1H-pyrazol-4-yl)pyridin-2-yl)-8-(3-hydroxy-2,2-dimethylpropanoyl)-1-(3-methoxybenzyl)-1,3,8-triazaspiro[4.5]decan-2-one]	< 3 nM
COc1cccc(CN2C(=O)N(c3ccc(-c4cn[nH]c4)cc3)CC23CCN(C(=O)c2ccc4cc[nH]c4c2)CC3)c1 [Example 179, 3-(4-(1H-pyrazol-4-yl)phenyl)-8-(1H-indole-6-carbonyl)-1-(3-methoxybenzyl)-1,3,8-triazaspiro[4.5]decan-2-one]	3 to 30 nM
O=C1N(c2ccc(-c3cn[nH]c3)cc2)CC2(CCNCC2)N1Cc1ccccc1F [Example 63, 3-(4-(1H-pyrazol-4-yl)phenyl)-1-(2-fluorobenzyl)-1,3,8-triazaspiro[4.5]decan-2-one]	3 to 30 nM
COc1cccc(CN2C(=O)N(c3ccc(-c4cn[nH]c4)cn3)CC23CCN(CC(C)(C)O)CC3)c1 [Example 161, 3-(5-(1H-pyrazol-4-yl)pyridin-2-yl)-8-(2-hydroxy-2-methylpropyl)-1-(3-methoxybenzyl)-1,3,8-triazaspiro[4.5]decan-2-one]	< 3 nM
COc1cc(F)cc(CN2C(=O)N(c3ccc(-c4cn[nH]c4)cc3)CC23CCN(CC(C)O)CC3)c1 (stereo not drawn) [Example 157, 3-(4-(1H-pyrazol-4-yl)phenyl)-1-(3-fluoro-5-methoxybenzyl)-8-(2-hydroxypropyl)-1,3,8-triazaspiro[4.5]decan-2-one]	< 3 nM
